Measured values reported in PMC3591457, “Biodistribution and Elimination Study of Fluorine-18 Labeled N^ε-Carboxymethyl-Lysine following Intragastric and Intravenous Administration” (PLoS ONE, 2013).
Several values for one entry are separate records, joined by “and”; a condition that tells them apart may be missing. Equal entries are not always repeated.

How the values were obtained:
[1] = ^18F-CML in vivo stability in mice (radio-HPLC of plasma and urine); parameters: species or system ICR mice; conditions: 60 min after tail vein injection, RP-HPLC
Description: The in vivo stability of the ^18F-CML in mice was determined using arterial blood and urine samples. Male ICR mice (n = 3) were anaesthetised with 2% vaporized isoflurane and injected with a dose of approximately 3.7 MBq of ^18F-CML in 250 µL of normal saline via the tail vein. […] Blood samples were removed immediately and centrifuged at 12,000 rpm for 2 min at 4°C to separate the plasma. The urinary bladder was carefully excised, and the urine was collected from the bladder. The plasma (30 µL) and an aliquot of the urine sample (20 µL) was injected into an HPLC column to analyze the in vivo stability of ^18F-CML in the mice.
The HPLC analysis method was based on using trichloroacetic acid to precipitation plasma proteins, which were subsequently separated by reversed-phase column liquid chromatography using a 150 mm×4.6 mm C18 column with a mobile phase of […] acetonitrile and pure water (55%/45%) and detected based on UV absorbance at 254 nm. Radioactivity signal was detected by a radiochromatography detector (PTW, Freiburg, Germany). The ratio of unchanged ^18F-CML to total radioactivity on the HPLC chromatogram was calculated and expressed as a percentage.

[2] = microPET imaging after intragastric administration; type: in vivo, ICR mice
Description: Male ICR mice weighing 18–20 g (7–8 wks old, n = 4) were kept fasting for 14 h […] and had free access to water before the experiments that followed. For the experiment, the mice were anesthetized and unconsciousness was maintained with a mixture of 1.5% isoflurane and nitrous oxide∶oxygen (7∶3). Approximately 3.0 MBq (80 µCi) of ^18F-labeled CML was administered via the gastrointestinal route. Five-minute static PET images were acquired at 15, 30, 60, 120 and 150 min post-injection.
Dynamic PET studies were performed using a dedicated microPET scanner for small animals. For imaging studies, the animals were under isoflurane anesthesia and then positioned and immobilized supine with their medial axis parallel to the axial axis of the scanner with the thorax and abdominal region (organs of interest: heart, liver, and kidneys) in the center of the field of view.
Approximately 5 min was needed to set the position of the animals after intragastric or intravenous administration of the drug solution containing ^18F-CML. Then, the emission data were acquired for 120 min. An attenuation map was created for each mouse by intravenously administering the residual ^18F-CML after acquisition of the emission data. […] The quantitative analyses of the hepatic and renal distributions of ^18F-CML were performed using ASIPro installed in the PET system.

[3] = ^18F-CML in vitro stability (RCP by paper chromatography at room temperature); type: physicochemical; conditions: 6 h at room temperature (26±2°C)
Description: The in vitro stability of ^18F-CML was studied by storing the freshly prepared complex at room temperature (26±2°C) for a period of 6 h. The RCP was evaluated every 0.5 h using paper chromatography to determine its in vitro stability.

[4] = Biodistribution after intravenous administration; type: in vivo, ICR mice; conditions: for Uptake in bladder, percentage of injected dose per whole tissue / Uptake in brain, percentage of injected dose per whole tissue / Uptake in heart, percentage of injected dose per whole tissue / Uptake in intestines, percentage of injected dose per whole tissue / Uptake in kidneys, percentage of injected dose per whole tissue / Uptake in liver, percentage of injected dose per whole tissue / Uptake in lungs, percentage of injected dose per whole tissue / Uptake in muscles, percentage of injected dose per whole tissue / Uptake in pancreas, percentage of injected dose per whole tissue / Uptake in stomach, percentage of injected dose per whole tissue: intravenous administration, n=3, mean ± SD
Description: The biodistribution of ^18F-CML was studied in eighteen young male ICR mice with a weight range of 18–20 g. Nine mice were used for intravenous administration and the other nine mice were used for intragastric administration.
For intravenous administration, ^18F-CML was injected into a lateral tail vein of the animals under light ether anesthesia. The injection volume (2–3 MBq; radiochemical purity 96%) was 0.1 mL. For intragastric administration, 1.5 MBq of ^18F-labeled CML was given via gastrointestinal tract tract.
The mice were sacrificed at 5, 60, and 120 min after administration of ^18F-CML (three mice at each time point). The animals were sacrificed by heart puncture under ether anaesthesia. The tissues and organs of interest were isolated and counted in a well-type γ counter. Additionally, 200 µL of blood was taken from the carotid artery. The distributions of ^18F-CML in different tissues and organs were calculated and expressed as the percent uptake of the injection dose per whole tissue (% ID).

[5] = intravenous, 60 min post-injection

- Radioactivity in an unchanged form in the plasma and urine (in vivo stability) [1]: more than 98%
- Localization of radioactivity (PET) ([2]; first 15 min after administration via stomach tube): completely localized in the stomach
- Resorption of radioactivity from the small intestine (PET) ([2]; within 2 h after application via stomach tube): not observed
- Radiochemical purity (RCP) retained on storage (in vitro stability) [3]: 98.2±0.3%
- Radioactivity in stomach, lungs, liver and intestines taken together, of the total injected dose ([4]; intravenous): less than 10%
- Uptake in bladder, percentage of injected dose per whole tissue ([4]; 5 min): 26.50±1.70 %ID
- Uptake in brain, percentage of injected dose per whole tissue ([4]; 5 min): 3.04±0.02 %ID
- Uptake in heart, percentage of injected dose per whole tissue ([4]; 5 min): 11.15±0.05 %ID
- Uptake in intestines, percentage of injected dose per whole tissue ([4]; 5 min): 1.02±0.05 %ID
- Uptake in kidneys, percentage of injected dose per whole tissue ([4]; 5 min): 29.30 %ID and 29.30±2.05 %ID
- Uptake in liver, percentage of injected dose per whole tissue ([4]; 5 min): 17.28±2.04 %ID
- Uptake in lungs, percentage of injected dose per whole tissue ([4]; 5 min): 1.65±0.05 %ID
- Uptake in muscles, percentage of injected dose per whole tissue ([4]; 5 min): 8.02±0.82 %ID
- Uptake in pancreas, percentage of injected dose per whole tissue ([4]; 5 min): 0.9±0.04 %ID
- Uptake in stomach, percentage of injected dose per whole tissue ([4]; 5 min): 0.35±0.02 %ID
- Uptake in bladder, percentage of injected dose per whole tissue ([4]; 60 min): 41.28±3.50 %ID
- Uptake in brain, percentage of injected dose per whole tissue ([4]; 60 min): 0.38±0.01 %ID
- Uptake in heart, percentage of injected dose per whole tissue ([4]; 60 min): 5.05±0.01 %ID
- Uptake in intestines, percentage of injected dose per whole tissue ([4]; 60 min): 2.35±0.01 %ID
- Uptake in kidneys, percentage of injected dose per whole tissue ([4]; 60 min): 35.6 %ID and 35.6±4.06 %ID
- Uptake in liver, percentage of injected dose per whole tissue ([4]; 60 min): 9.72±1.62 %ID
- Uptake in lungs, percentage of injected dose per whole tissue ([4]; 60 min): 1.12±0.02 %ID
- Uptake in muscles, percentage of injected dose per whole tissue ([4]; 60 min): 5.17±1.12 %ID
- Uptake in pancreas, percentage of injected dose per whole tissue ([4]; 60 min): 0.01±0.0 %ID
- Uptake in stomach, percentage of injected dose per whole tissue ([4]; 60 min): 0.02±0.01 %ID
- Uptake in bladder, percentage of injected dose per whole tissue ([4]; 120 min): 72.30±5.20 %ID
- Uptake in brain, percentage of injected dose per whole tissue ([4]; 120 min): 0.07±0.00 %ID
- Uptake in heart, percentage of injected dose per whole tissue ([4]; 120 min): 1.03±0.00 %ID
- Uptake in intestines, percentage of injected dose per whole tissue ([4]; 120 min): 0.5±0.00 %ID
- Uptake in kidneys, percentage of injected dose per whole tissue ([4]; 120 min): 18.1 %ID and 18.1±2.65 %ID
- Uptake in liver, percentage of injected dose per whole tissue ([4]; 120 min): 3.28±0.05 %ID
- Uptake in lungs, percentage of injected dose per whole tissue ([4]; 120 min): 0.25±0.00 %ID
- Uptake in muscles, percentage of injected dose per whole tissue ([4]; 120 min): 3.02±0.82 %ID
- Uptake in pancreas, percentage of injected dose per whole tissue ([4]; 120 min): 0.00±0.02 %ID
- Uptake in stomach, percentage of injected dose per whole tissue ([4]; 120 min): 0.01±0.00 %ID
- Injected dose found in the urine and stomach, lungs, liver and intestines [4, 5]: less than 50%
- Remaining radioactivity located in the circulating blood [4, 5]: approximately 8%
Structure (SMILES): O=C(O)CNCCCCC(NC(=O)c1ccc([18F])cc1)C(=O)O (stereo not shown) [^18F-CML]
